Source: PMC5278707, “Structure-Activity Relationships of a Series of Echinocandins and the Discovery of CD101, a Highly Stable and Soluble Echinocandin with Distinctive Pharmacokinetic Properties” (Antimicrobial Agents and Chemotherapy, 2017)
≈ marks a conversion by molar mass, not a printed value. Read-outs that look alike come from different tables or passages of the source. *1 amine or outer side, *2 acyl side, *3 side chain or, on linkers, in order; H or OH if unused. Where a SMILES comes first, the peptide text is derived from it. Bridges are numbered along the chain shown (N, C = ends). [ ]: non-standard residue; d: D form. The star is where a group is joined. pTerphenylCO(4''-OnC5H11) = CCCCCOc1ccc(-c2ccc(-c3ccc(C(=O)*)cc3)cc2)cc1; Orn(4R-OH,5R-OH) = O=C([C@H](C[C@@H](O)[C@@H](O)N[*:3])N[*:1])[*:2]; hTyr(3S-OH,4S-OH) = N[C@H](C(=O)O)[C@H](O)[C@@H](O)c1ccc(O)cc1; Pro(3S-OH,4S-Me) = C[C@H]1CN[C@H](C(=O)O)[C@H]1O; Hyp = O=C(O)[C@@H]1C[C@@H](O)CN1

Experiments:
[1] = system: Candida krusei ATCC 14243; assay: CLSI broth microdilution (M27-A3) MIC; type: cell-based; settings: Pichia kudriavzevii, ATCC14243, 50% reduction in growth
Protocol: (§1) All yeast and mold isolates were obtained from the American Type Culture Collection (ATCC). Isolates were plated on an agar medium to verify purity, and single colonies were picked. Aspergillus isolates were resubcultured on potato dextrose slants and incubated for 7 days at 35°C. Candida isolates were streaked on SDA plates and incubated for 24 h at 35°C. RPMI 1640 medium (HyClone Laboratories, Logan, UT) and the inoculum for each organism were prepared according to Clinical and Laboratory Standards Institute (CLSI) guidelines ([27][–][29]). Stock solutions for all test articles were prepared in 100% dimethyl sulfoxide (DMSO). Susceptibility testing was performed using CLSI broth microdilution methods for Candida (M27-A3) and Aspergillus (M38-A2). Amphotericin B was tested at a range of 0.06 to 64 μg/ml; all other antifungal agents were tested at 0.015 to 16 μg/ml. Plates were incubated at 35°C and were read from the bottom using a plate viewer after 24 and 48 h for Candida and after 48 h for Aspergillus. MIC values are reported as the lowest drug concentration to yield a 50% reduction in the growth of Candida species tested compared to the control well. Minimum effective concentration (MEC) values are reported as the lowest drug concentration to yield the stunted hyphal growth of Aspergillus species tested compared to that of the control well.

[2] = system: Candida tropicalis ATCC 90874; assay: CLSI broth microdilution (M27-A3) MIC; type: cell-based; settings: 50% reduction in growth
Protocol: as §1

[3] = system: Candida lusitaniae ATCC 34134; assay: CLSI broth microdilution (M27-A3) MIC; type: cell-based; settings: Clavispora lusitaniae
Protocol: as §1

[4] = system: Candida parapsilosis ATCC 22019; assay: CLSI broth microdilution (M27-A3) MIC; type: cell-based; settings: Lodderomyces parapsilosis, ATCC22019, 50% reduction in growth
Protocol: as §1

[5] = system: Candida glabrata ATCC 90030; assay: CLSI broth microdilution (M27-A3) MIC; type: cell-based; settings: Nakaseomyces glabratus, ATCC90030, 50% reduction in growth, read-out: MIC
Protocol: as §1

[6] = system: Candida albicans ATCC 90028; assay: CLSI broth microdilution (M27-A3) MIC; type: cell-based; settings: 50% reduction in growth
Protocol: as §1

[7] = system: Candida guilliermondii ATCC 34134; assay: CLSI broth microdilution (M27-A3) MIC; type: cell-based; settings: Meyerozyma guilliermondii, ATCC34134, 50% reduction in growth
Protocol: as §1

[8] = single-dose pharmacokinetics in beagle dogs; settings: male, dog, in vivo, iv
Protocol: Four male, nonnaive beagle dogs received a single i.v. infusion (1.4 mg/kg) of test article over 10 min via a catheter placed in the cephalic vein. Blood draws (1.0 ml) were taken at 0.083, 0.33, 0.75, 1.5, 4.5, 12, 24, and 48 h. An additional blood draw at 72 h was obtained for CD101. Blood draws were taken from the jugular vein and were collected into K3 EDTA tubes. Following blood collection, the samples were immediately inverted several times and were held on wet ice pending centrifugation. The samples were centrifuged within ∼30 min of collection under refrigeration (∼5°C for ∼10 min at ∼2,000 g) to obtain plasma. The plasma samples were frozen immediately on dry ice after separation and were stored at approximately −70°C until analysis. Levels of test article in the plasma samples were measured by quantitative liquid chromatography-tandem mass spectrometry (LC-MS/MS) analysis compared to a calibration curve and an internal standard. Pharmacokinetic parameters were calculated from the plasma concentration-time data using standard noncompartmental methods and utilizing WinNonlin analysis software.

[9] = system: Aspergillus clavatus ATCC 10058; assay: CLSI broth microdilution (M38-A2) MEC/MIC; type: cell-based; settings: read at 68 h, stunted hyphal growth
Protocol: as §1, with “Plates were incubated at 35°C and were read from the bottom using a plate viewer after 24 and 48 h for Candida and after 48 h for Aspergillus.” left out

[10] = system: Aspergillus spp.; assay: CLSI broth microdilution (M38-A2) MEC, whole panel; type: cell-based; settings: 48 h, summary of Table 3
Protocol: as §1

[11] = system: Aspergillus fumigatus ATCC 204305; assay: CLSI broth microdilution (M38-A2) MEC/MIC; type: cell-based; settings: 48 h, stunted hyphal growth
Protocol: as §1

[12] = system: Aspergillus niger ATCC 16888; assay: CLSI broth microdilution (M38-A2) MEC/MIC; type: cell-based; settings: 48 h, stunted hyphal growth
Protocol: as §1

[13] = system: Aspergillus flavus ATCC 22546; assay: CLSI broth microdilution (M38-A2) MEC/MIC; type: cell-based; settings: 48 h, stunted hyphal growth
Protocol: as §1

[14] = system: Aspergillus fumigatus ATCC MYA-3626; assay: CLSI broth microdilution (M38-A2) MEC/MIC; type: cell-based; settings: 48 h, stunted hyphal growth
Protocol: as §1

[15] = system: Aspergillus ochraceus ATCC 96919; assay: CLSI broth microdilution (M38-A2) MEC/MIC; type: cell-based; settings: 48 h, stunted hyphal growth
Protocol: as §1

[16] = system: Aspergillus candidus ATCC 13686; assay: CLSI broth microdilution (M38-A2) MEC/MIC; type: cell-based; settings: 48 h, stunted hyphal growth
Protocol: as §1

[17] = system: Candida albicans R303; assay: mouse model of disseminated candidiasis, fungal burden in kidneys; type: in vivo; settings: neutropenic CD-1 mice, 0.5, 1.5 or 4.5 mg/kg 2 h after inoculation, kidneys at 24 h
Protocol: Candida albicans R303 was grown on Sabouraud dextrose agar (SDA) plates for 24 h at 35°C. Colonies were transferred to phosphate-buffered saline (PBS) and diluted to 3.8 × 10^5 CFU/ml. Female CD-1 mice (Charles River Laboratories, Portage, MI) were rendered neutropenic via injection with cyclophosphamide (150 mg/kg) 5 days and 2 days prior to inoculation. Each animal was infected by injecting 0.1 ml of inoculum into the tail vein. In the treatment groups, animals received 0.5, 1.5, or 4.5 mg/kg of test article 2 h after inoculation. Two groups of untreated, infected controls were used to evaluate fungal burden: at 2 h when test articles were administered in the treatment groups and at 24 h when the treatment groups were sacrificed. Kidneys were harvested at 2 h in one untreated control group and at 24 h in all other groups. The kidneys were homogenized in 2 ml of sterile phosphate-buffered saline, and 0.1-ml aliquots were spread on SDA plates and incubated at 35°C overnight. Fungal burden was determined based on the log10 C. albicans CFU counts from paired kidneys. Data were analyzed using a one-way analysis of variance (ANOVA) and the Dunnett multiple comparisons test comparing the test articles to the infected control group (GraphPad InStat version 3.1; GraphPad Software, San Diego, CA).

Compound | MIC ([1]; 24 h) [µg/mL] | MIC ([1]; 48 h) [µg/mL] | MIC ([2]; ATCC90874, 24 h) [µg/mL] | MIC ([2]; ATCC90874, 48 h) [µg/mL] | MIC ([4]; 24 h) [µg/mL] | MIC ([4]; 48 h) [µg/mL] | MIC ([5]; 24 h) [µg/mL] | MIC ([5]; 48 h) [µg/mL] | MIC ([6]; ATCC90028, 24 h) [µg/mL] | MIC ([6]; ATCC90028, 48 h) [µg/mL] | MIC ([7]; 24 h) [µg/mL] | MIC ([7]; 48 h) [µg/mL] | MEC [9] [µg/mL] | MEC values against all Aspergillus species tested [10] | MEC [11] [µg/mL] | MEC [12] [µg/mL] | MEC [13] [µg/mL] | MEC [14] [µg/mL] | MEC [15] [µg/mL] | MEC [16] [µg/mL] | further results
CCCCCOc1ccc(-c2ccc(-c3ccc(C(=O)N[C@H]4C[C@@H](O)[C@@H](O)NC(=O)[C@@H]5[C@@H](O)[C@@H](C)CN5C(=O)[C@H]([C@@H](C)O)NC(=O)[C@H]([C@H](O)[C@@H](O)c5ccc(O)cc5)NC(=O)[C@@H]5C[C@@H](O)CN5C(=O)[C@H]([C@@H](C)O)NC4=O)cc3)cc2)cc1 [Anidulafungin, anidulafungin] ({pTerphenylCO(4''-OnC5H11)}-[Orn(4R-OH,5R-OH)]T[Hyp][hTyr(3S-OH,4S-OH)]T[Pro(3S-OH,4S-Me)]; lactam 1-C) | 0.03 (≈ 0.0263 µM) | 0.06 (≈ 0.0526 µM) | ≤ 0.015 | ≤ 0.015 | 0.5 (≈ 0.438 µM) | 0.5 (≈ 0.438 µM) | 0.03 (≈ 0.0263 µM) | 0.03 (≈ 0.0263 µM) | ≤ 0.015 | ≤ 0.015 | 1 (≈ 0.877 µM) | 2 (≈ 1.75 µM) | ≤0.015 | below 0.03 μg/ml | ≤0.015 | ≤0.015 | ≤0.015 | ≤0.015 | 0.03 | ≤0.015 | MIC ([3]; ATCC34134, 24 h): 0.125 µg/mL (≈ 0.11 µM); MIC ([3]; ATCC34134, 48 h): 0.125 µg/mL (≈ 0.11 µM); clearance ([8]; beagle dogs, single i.v. 1.4 mg/kg, 10-min slow bolus): 0.783 mL/min/kg; Vd ([8]; beagle dogs, single i.v. 1.4 mg/kg, 10-min slow bolus, read-out: V (volume of distribution)): 0.779 L/kg; half-life ([8]; beagle dogs, single i.v. 1.4 mg/kg, 10-min slow bolus, read-out: t1/2 (converted)): 11.6 h
CCCCCOc1ccc(-c2ccc(-c3ccc(C(=O)N[C@H]4C[C@@H](O)[C@@H](NCC[N+](C)(C)C)NC(=O)[C@@H]5[C@@H](O)[C@@H](C)CN5C(=O)[C@H]([C@@H](C)O)NC(=O)[C@H]([C@H](O)[C@@H](O)c5ccc(O)cc5)NC(=O)[C@@H]5C[C@@H](O)CN5C(=O)[C@H]([C@@H](C)O)NC4=O)cc3)cc2)cc1 [Compound 6] | 0.03 | 0.03 | ≤ 0.015 | ≤ 0.015 | 0.25 | 0.5 | 0.03 | 0.03 | 0.03 | 0.03 | 0.5 | 1 | 0.03 | below 0.03 μg/ml | ≤0.015 | ≤0.015 | ≤0.015 | ≤0.015 | 0.03 | ≤0.015 | MIC ([3]; ATCC34134, 24 h, 50% reduction in growth, read-out: MIC): 0.25 µg/mL; MIC ([3]; ATCC34134, 48 h, 50% reduction in growth, read-out: MIC): 0.25 µg/mL; reductions in fungal burden vs infected control (statistical significance) [17]: statistically significant (P < 0.01) reductions in fungal burden at all doses; Vd ([8]; beagle, 1.4 mg/kg): 0.874 L/kg; half-life ([8]; beagle, 1.4 mg/kg): 27.6 h
